Results as given in patent US6046186A, “Estrone sulfamate inhibitors of estrone sulfatase, and associated pharmaceutical compositions and methods of use” (SRI International, priority 1997, dated 2000).
Where two headings read alike, the source gives them in different places.

What was measured:
uterus = experiment: Uterotrophic assay (estrogenic activity from uterine weights); type: in vivo, Sprague Dawley rats; parameters: scale not given here; conditions: female rats, test compound alone once daily for 7 days, s.c. or oral gavage; uterine weight vs vehicle control
Description: B. Uterotrophic and antiuterotrophic assays
Sprague Dawley rates are obtained from Simmonsen Laboratories, Gilroy, Calif. Estradiol benzoate may be purchased from Sigma Chemical Co., St. Louis, Mo.
The procedure of Wakeling et al., Endocrinology 99:447453 (1983) is followed. Female Sprague Dawley rats weighing 40-50 grams are used for the experiment. In general, animals are quarantined for 3 days after arrival at the experimental site.
Rats are initially weighed and randomly divided into groups with 5 animals in each group. For the uterotrophic assay, animals are dosed once daily with various doses of test compounds in 0.1 or 1.0 ml of sterile saline via subcutaneous injection or oral gavage, respectively. For the antiuterotrophic assay, animals are dosed once daily with the same doses indicated above plus 0.5 μg/rat of estradiol benzoate alone.
The animals are treated for 7 days. On day 8, animals are weighed and then sacrificed. The uterus of each animal is removed immediately after death and weighed; fat materials are trimmed off prior to weighing.
A comparison of uterine weights from the groups receiving test compound alone with those of the vehicle control group gives the estrogenic activity. Antiestrogenic activity is obtained by comparing the uterine weights from the groups receiving test compound plus estradiol with those of the estradiol control group.

Estrone Sulfatase = molecular target: T1, Estrone Sulfatase (Homo sapiens, UniProt P08842); experiment: Effects of Inhibitors on Estrone Sulfatase Activity in MCF-7 Cells; type: cell-based
T1 construct: endogenous in cells; host or cells: MCF-7 human breast cancer cells (American Type Culture Collection)
T1 sequence (P08842 22-583): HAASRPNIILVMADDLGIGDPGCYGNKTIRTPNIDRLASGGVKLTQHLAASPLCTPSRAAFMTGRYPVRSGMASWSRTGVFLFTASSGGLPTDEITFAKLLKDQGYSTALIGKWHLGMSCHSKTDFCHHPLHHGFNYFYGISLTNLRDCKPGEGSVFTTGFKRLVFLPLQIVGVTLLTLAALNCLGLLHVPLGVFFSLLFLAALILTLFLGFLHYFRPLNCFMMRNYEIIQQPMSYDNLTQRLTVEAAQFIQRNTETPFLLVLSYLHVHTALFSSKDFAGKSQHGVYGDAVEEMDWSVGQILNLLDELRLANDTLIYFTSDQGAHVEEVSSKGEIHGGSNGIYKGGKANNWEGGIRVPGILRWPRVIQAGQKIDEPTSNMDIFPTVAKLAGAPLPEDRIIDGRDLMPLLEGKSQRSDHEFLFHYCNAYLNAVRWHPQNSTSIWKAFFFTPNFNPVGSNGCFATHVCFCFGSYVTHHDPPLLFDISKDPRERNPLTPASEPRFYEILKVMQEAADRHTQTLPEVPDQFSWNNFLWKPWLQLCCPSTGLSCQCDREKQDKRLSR
Description: A. Effects of Inhibitors on Estrone Sulfatase Activity in MCF-7 Cells
Reagents: MCF-7 human breast cancer cell line was supplied by the American Type Culture Collection, Rockville, MD. Eagle's minimum essential medium (MEM) and fetal calf serum (FCS) were purchased from Sigma Chemical Company, St. Louis, Mo. [4-^14 C]Estrone, [6,7-^3 H]estradiol and [6,7-^3 H](N)estrone sulfate were obtained from New England Nuclear Research Products, Boston, Mass.
Procedure: The method of Duncan et al., Cancer Res. 53:298-303 (1993) was employed. MCF-7 cells were seeded in 60 mm×15 mm culture dishes at 1×10^5 cells/dish and maintained in 4.0 ml of MEM containing 2 mM glutamine and 5% FCS. The cells were incubated at 37° C. in an atmosphere of 5% CO2 /95% air and 100% humidity, with the medium changed every third day. When the cells reached 80% confluency, the intact monolayers were washed once with Earl's balanced salt solution and incubated in 4.0 ml of serum and phenol re-free MEM containing either the substrate (^3 H-estrone sulfate, 7 pmol, 9×10^5 dpm) and inhibitor dissolved in ethanol, or ethanol alone. The fmal ethanol concentration was always below 1%. The incubation continued under the regular conditions for 24 h. At the end of 24 h, 2.0 ml of medium was transferred into separate tubes containing 7×10^3 dpm of ^14 C-estrone. The mixture was vortexed vigorously for 60 s with 5 ml of toluene. After phase separation, 2.0 ml of the organic phase was transferred into a counting vial for scintillation counting. The amount of estrone sulfate hydrolyzed was calculated on the basis of ^3 H counts obtained, with the added ^14 C-estrone counts used to correct for recovery through the extraction procedure.
The cells remaining in each culture dish were washed once with saline and then scraped with 1.0 ml of 0.5 N NaOH into 10×75 mm tubes. The cell pellets in each tube was incubated at 50° C. for 20 min to ensure that digestion was complete and all proteins had became soluble. An aliquot was then taken for protein determination by Lowry's method (Lowry et al., J. Biol. Chem. 193:265-275 (1951)).
The percentage of inhibition was determined by evaluating the quantity of estrone sulfate hydrolyzed with the inhibitor relative to that without the inhibitor.
As a general practice, all available inhibitors were first tested at 100 μM; the ones showing inhibitory effects at that concentration were tested again at various concentrations to obtain the IC50 values.

[1] = intact MCF-7 human breast cancer cells, 3H-estrone sulfate substrate, 24 h, 37° C., read-out: Estrone Sulfatase Inhibitory Activity IC50

Structure (SMILES)	Estrogenic Activity (uterus)	IC50 (Estrone Sulfatase; [1]) [nM]	IC50 (Estrone Sulfatase) [nM]
CCC/C=C1/CC[C@H]2[C@@H]3CCc4cc(OS(N)(=O)=O)ccc4[C@H]3CC[C@]12C [Compound 17, [17(20)Z]-19,21-Dinorchola-1,3,5(10)17(20)-tetraene-3-O-sulfamate]	0.55	0.011	–
CCOC(=O)/C=C1\CC[C@H]2[C@@H]3CCc4cc(OS(N)(=O)=O)ccc4[C@H]3CC[C@]12C [Compound 34, Ethyl 3-Sulfamoyloxy-[17(20)E]-19-norpregna-1,3,5(10),17(20)-tetraen-21-oate]	0	0.27	–
CC/C=C1/CC[C@H]2[C@@H]3CCc4cc(OS(N)(=O)=O)ccc4[C@H]3CC[C@]12C [Compound 15, [17(20)Z]-Propylideneestra-1,3,5(10)-triene-3-O-sulfamate]	0.30	0.038	–
CCC[C@H]1CC[C@H]2[C@@H]3CCc4cc(OS(N)(=O)=O)ccc4[C@H]3CC[C@]12C [Compound 21, 17β-Propylestra-1,3,5(10)-triene-3-O-sulfamate]	0	0.034	–
CN(C)Cc1cc2c(cc1OS(N)(=O)=O)CC[C@@H]1[C@@H]2CC[C@]2(C)C(=O)CC[C@@H]12 [Compound 73, 2-Dimethylaminomethylestra-1,3,5(10)-trien-17-one-3-O-sulfamate]	0	> 1000	–
C/C=C1/CC[C@H]2[C@@H]3CCc4cc(OS(N)(=O)=O)ccc4[C@H]3CC[C@]12C [Compound 13, [17(20)Z]-19-Norpregna-1,3,5(10),17(20)-tetraene-3-O-sulfamate]	0.05	0.08	–
CC(=O)C1=CC[C@H]2[C@@H]3CCc4cc(OS(N)(=O)=O)ccc4[C@H]3CC[C@]12C [Compound 7, 19-Norpregna-1,3,5(10),16-tetraen-20-one-3-O-sulfamate]	0.66	0.021	–
CCOC(=O)/C=C1/CC[C@H]2[C@@H]3CCc4cc(OS(N)(=O)=O)ccc4[C@H]3CC[C@]12C [Compound 32, Ethyl 3-Sulfamoyloxy-[17(20)Z]-19-norpregna-1,3,5(10),17(20)-tetraen-21-oate]	0	2.7	–
CC(=O)Nc1cc2c(cc1OS(N)(=O)=O)CC[C@@H]1[C@@H]2CC[C@]2(C)C(=O)CC[C@@H]12 [Compound 93, 2-Acetoamideestra-1,3,5(10)-trien-17-one-3-O-sulfamate]	0.02	410	–
CN(C)CCOC/C=C1\CC[C@H]2[C@@H]3CCc4cc(OS(N)(=O)=O)ccc4[C@H]3CC[C@]12C [Compound 39, 21-(2'-N,N-Dimethylaminoethoxy)-[17(20)E]-19-norpregna-1,3,5(10),17(20)-tetraene-3-O-sulfamate]	0	34	–
C[C@]12CC[C@@H]3c4ccc(OS(N)(=O)=O)cc4CC[C@H]3[C@@H]1CCC2=C(C#N)C#N [Compound 36, 20-Cyano-19-norpregna-1,3,5(10),17(20)-tetraene-21-nitrile-3-O-sulfamate]	0.44	0.09	–
C[C@]12CC[C@@H]3c4ccc(OS(N)(=O)=O)c([N+](=O)[O-])c4CC[C@H]3[C@@H]1CCC2=O [Compound 77, 4-Nitroestra-1,3,5(10)-trien-17-one-3-O-sulfamate]	0	< 10	–
CC(=O)Nc1c(OS(N)(=O)=O)ccc2c1CC[C@@H]1[C@@H]2CC[C@]2(C)C(=O)CC[C@@H]12 [Compound 96, 4-Acetoamideestra-1,3,5(10)-trien-17-one-3-O-sulfamate]	0	290	–
CN(C)c1cc2c(cc1OS(N)(=O)=O)CC[C@@H]1[C@@H]2CC[C@]2(C)C(=O)CC[C@@H]12 [Compound 83, 2-Dimethylaminoestra-1,3,5(10)-trien-17-one-3-O-sulfamate]	0	270	–
CN(C)CCCO[C@H]1CC[C@H]2[C@@H]3CCc4cc(OS(N)(=O)=O)ccc4[C@H]3CC[C@]12C [Compound 47, 17β-(3'-N,N-Dimethylaminopropoxy)estra-1,3,5(10)-triene-3-O-sulfamate]	0.27	23	–
COc1cc2c(cc1OS(N)(=O)=O)CC[C@@H]1[C@@H]2CC[C@]2(C)C(=O)CC[C@@H]12 [Compound 67, 2-Methoxyestra-1,3,5(10)-trien-17-one-3-O-sulfamate]	0	–	0.016
CC(=O)[C@H]1CC[C@H]2[C@@H]3CCc4cc(OS(N)(=O)=O)ccc4[C@H]3CC[C@]12C [Compound 10, 19-Norpregna-1,3,5(10)trien-20-one-3-O-sulfamate]	0	2	–
COCc1cc2c(cc1OS(N)(=O)=O)CC[C@@H]1[C@@H]2CC[C@]2(C)C(=O)CC[C@@H]12 [Compound 75, 2-Methoxymethylestra-1,3,5(10)-trien-17-one-3-O-sulfamate]	0	2	–
CCCC[C@H]1CC[C@H]2[C@@H]3CCc4cc(OS(N)(=O)=O)ccc4[C@H]3CC[C@]12C [Compound 23, 19,21-Dinorchola-1,3,5(10)-triene-3-O-sulfamate]	0.02	0.096	–
CC[C@H]1CC[C@H]2[C@@H]3CCc4cc(OS(N)(=O)=O)ccc4[C@H]3CC[C@]12C [Compound 19, 19-Norpregna-1,3,5(10)-triene-3-O-sulfamate]	0.54	0.02	–
CC/C=C1\CC[C@H]2[C@@H]3CCc4cc(OS(N)(=O)=O)ccc4[C@H]3CC[C@]12C [Compound 28, [17(20)E]-Propylideneestra-1,3,5(10)-triene-3-O-sulfamate]	0.20	0.027	–
C[C@]12CC[C@@H]3c4cc([N+](=O)[O-])c(OS(N)(=O)=O)cc4CC[C@H]3[C@@H]1CCC2=O [Compound 78, 2-Nitroestra-1,3,5(10)-trien-17-one-3-O-sulfamate]	0	–	7
COC(=O)c1cc2c(cc1OS(N)(=O)=O)CC[C@@H]1[C@@H]2CC[C@]2(C)C(=O)CC[C@@H]12 [Compound 65, 2-Methoxycarbonylestra-1,3,5(10)-trien-17-one-3-O-sulfamate]	0	–	–
